Laboratory results as given in patent US4912036A, “Rapid differentiation of bacteria using cyclic polypeptide antibiotics” (Eastman Kodak Company, priority 1986, dated 1990).

Assays:
E. coli [1] = test: RIND VII reduction solution assay, ΔOD 635 nm; assay type: cell-based, Escherichia coli; conditions: E. coli 7 × 10^7 /ml, antibiotic 10^-4 molar
Procedure: (§1) Bacterial suspensions were prepared by growing the cells in BHT broth to stationary phase overnight at 37° C. P. auruginosa was grown with agitation. About 40 ml of each overnight culture was centrifuged, decanted and washed once with 0.05 molar potassium phosphate buffer or 0.05 molar N-2-hydroxy-ethylpiperazine-N'-2-ethanesulfonic acid (HEPES) buffer, pH 7.8, and resuspended in buffer.
(§2) TERGITOL 7 anionic surfactant was used to differentiate viable bacteria according to the prior art method. Various concentrations of TERGITOL 7 surfactant were mixed with a 10% glucose solution (50 μl), 3-(4,5-dimethyl-2-thiazolyl)-2,5-diphenyl-2N-tetrazolium bromide (MTT) (25 μl at 5 mg/ml methanol) or a RIND VII dispersion (1.5 ml) and phenazine methosulfate ETA (25 μl at 3 mg/ml methanol). The volume of each test solution was brought to 3 ml with potassium phosphate buffer. A cell suspension (100 μl at about 10^8 cells/ml) was then added. The solutions were incubated at 37° C. for 15 and 30 minutes in the presence of either E. coli, a gram(-) bacterium, or S. aureus, a gram(+) bacterium. The amount of dye formed was then determined visually, and graded as follows: "O" indicates no dye formation, +/- indicates faint dye formation, 1+ indicates light dye formation, 2+ indicates moderate dye formation, 3+ indicates strong dye formation, and 4+ indicates very strong dye formation. […]

S. aureus [2] = test: RIND VII reduction solution assay, ΔOD 635 nm; assay type: cell-based, Staphylococcus aureus; conditions: S. aureus 7 × 10^7 /ml, antibiotic 10^-4 molar
Procedure: as §1, §2

E. coli [3] = test: RIND XXIX reduction solution assay, Δ fluorescence; assay type: cell-based, Escherichia coli; conditions: E. coli (gram -) about 5×10^7 cells/ml, gramicidin S 0.1 mg/ml, 37° C.
Procedure: as §1
(§3) Dispersions containing RIND compounds were prepared by dissolving the RIND compound in N,N-dimethylformamide (DMF) at 16 mg compound per ml of solvent. An aliquot (250 μl) of the resulting solution was added to 500 μl of TRITON X-100 surfactant. This mixture was then added dropwise with stirring to 25 ml of 0.05 molar HEPES buffer. A dispersion of RIND XXIX was prepared similarly except that DMF was acidified with 0.1% sulfuric acid. Compositions containing water-compatible RIND compounds were prepared as described above except the surfactant was omitted.
(§4) Each test solution contained the following: dispersion of RIND XXIX (25 μl) prepared as described above, glucose (400 μl of 10% aqueous solution), tryptose (400 μl of 10% aqueous solution), trimethyl-1,4-benzoquinone ETA (500 μl of 1.5 mg/ml methanol). Aliquots (200 μl) of the mixture were mixed with solutions of the antibiotics (50 μl). The cell suspensions (50 μl) were then added. The final concentration of gramcidin S and tyrocidin were 0.1 mg/ml and 3.3 mg/ml, respectively. The final cell concentration was about 5×10^7 cells/ml. Cell control solutions contained all reagents except antibiotics. Background controls consisted of both buffer and solution controls. […]
(§5) The solutions were incubated at 37° C. for 30 minutes, and the change in fluorescence emission (Δ fluorescence) was determined as the difference between the readings taken when the solutions were first mixed and then after 30 minutes incubation. Measurements were made in a commercially available MICROFLUOR Reader (available from Dynatech Laboratories, Alexandria, Virginia, U.S.A.), modified with an excitation filter at 540 nm, an emission filter at 620 nm and a Xenon lamp. […]

K. pneumoniae = test: RIND XXIX reduction solution assay, Δ fluorescence; assay type: cell-based, Klebsiella pneumoniae; conditions: K. pneumoniae (gram -) about 5×10^7 cells/ml, gramicidin S 0.1 mg/ml, 37° C.
Procedure: as §1, §3, §4, §5

S. aureus [4] = test: MTT reduction solution assay, ΔOD 540 nm; assay type: cell-based, Staphylococcus aureus; conditions: S. aureus (+) 5×10^7, gramicidin S 0.00625 mg/ml, 37° C.
Procedure: (§6) These examples illustrate the differentiation of bacteria using a tetrazolium salt and phenolic dye as the reducible compounds and two cyclic polypeptide antibiotics according to the present invention. The tetrazolium salt was 3-(4,5-dimethyl-2-thiazolyl) -2,5-diphenyl-2H-tetrazolium bromide (MTT) which forms a colored formazan dye when reduced. The phenolic dye was 2,6-dichloroindophenol (DCIP) which forms a colorless species when reduced.
(§7) Solutions of the reducible compounds were prepared with the following: HEPES buffer (3 ml, 0.05 molar, pH 7.5), TRITON X-100 nonionic surfactant (1% concentration), glucose (50 μl of 10% in water), tryptose (50 μl of a 10% solution in water), MTT (25 μl of 5 mg/ml methanol) or DCIP (25 μl of 3 mg/ml methanol) and phenazine methosultate ETA (25 μl of 3 mg/ml methanol).
(§8) Test solutions were prepared from the following: reducible compound solution from above (200 μl), 50 μl of either gramicidin S solution (6 mg/ml methanol and 9 ml of buffer) or tyrocidin solution (100 mg/ml methanol and 8 ml of buffer) and 50 μl of cell suspension. […] The change in optical density (ΔOD) was determined after 30 minutes at 37° C. at 540 nm for the MTT assay and at 620 nm for the DCIP assay using a commercially available spectrophotometer.

E. coli [5] = test: MTT reduction solution assay, ΔOD 540 nm; assay type: cell-based, Escherichia coli; conditions: E. coli (-) 5×10^7, gramicidin S 0.00625 mg/ml, 37° C.
Procedure: as §6, §7, §8

S. aureus [6] = test: DCIP reduction solution assay, ΔOD 620 nm; assay type: cell-based, Staphylococcus aureus; conditions: S. aureus (+) 5×10^7, gramicidin S 0.00625 mg/ml, 37° C.
Procedure: as §6, §7, §8

E. coli [7] = test: DCIP reduction solution assay, ΔOD 620 nm; assay type: cell-based, Escherichia coli; conditions: E. coli (-) 5×10^7, gramicidin S 0.00625 mg/ml, 37° C.
Procedure: as §6, §7, §8

[8] = test system: various bacteria which are found in the human urinary tract; test: Differentiation with RIND VII, overall result; assay type: cell-based; conditions: gramicidin S 10^-4 molar
Procedure: TERGITOL 7 anionic surfactant was used to differentiate viable bacteria according to the prior art method. Various concentrations of TERGITOL 7 surfactant were mixed with a 10% glucose solution (50 μl), 3-(4,5-dimethyl-2-thiazolyl)-2,5-diphenyl-2N-tetrazolium bromide (MTT) (25 μl at 5 mg/ml methanol) or a RIND VII dispersion (1.5 ml) and phenazine methosulfate ETA (25 μl at 3 mg/ml methanol). The volume of each test solution was brought to 3 ml with potassium phosphate buffer. A cell suspension (100 μl at about 10^8 cells/ml) was then added. The solutions were incubated at 37° C. for 15 and 30 minutes in the presence of either E. coli, a gram(-) bacterium, or S. aureus, a gram(+) bacterium. The amount of dye formed was then determined visually, and graded as follows: "O" indicates no dye formation, +/- indicates faint dye formation, 1+ indicates light dye formation, 2+ indicates moderate dye formation, 3+ indicates strong dye formation, and 4+ indicates very strong dye formation.
Gramicidin S, a cyclic polypeptide antibiotic, was similarly used with RIND VII in the differentiation of various bacteria which are found in the human urinary tract. Assays were performed as described above. The final concentration of gramicidin S in each test was 10^-4 molar. […] Dye measurements were made at 635 nm and expressed below as the change in optical density (ΔOD) which was corrected for background.

[9] = test system: viable gram-positive and gram-negative bacteria; test: Differentiation in RIND XXIX solution assays, overall result; assay type: cell-based; conditions: gramicidin S 0.1 mg/ml, tyrocidin 3.3 mg/ml
Procedure: Each test solution contained the following: dispersion of RIND XXIX (25 μl) prepared as described above, glucose (400 μl of 10% aqueous solution), tryptose (400 μl of 10% aqueous solution), trimethyl-1,4-benzoquinone ETA (500 μl of 1.5 mg/ml methanol). Aliquots (200 μl) of the mixture were mixed with solutions of the antibiotics (50 μl). The cell suspensions (50 μl) were then added. The final concentration of gramcidin S and tyrocidin were 0.1 mg/ml and 3.3 mg/ml, respectively. The final cell concentration was about 5×10^7 cells/ml. Cell control solutions contained all reagents except antibiotics. Background controls consisted of both buffer and solution controls. The buffer control contained all reagents except antibiotics and cells. The solution control contained all reagents except cells.
The solutions were incubated at 37° C. for 30 minutes, and the change in fluorescence emission (Δ fluorescence) was determined as the difference between the readings taken when the solutions were first mixed and then after 30 minutes incubation. Measurements were made in a commercially available MICROFLUOR Reader (available from Dynatech Laboratories, Alexandria, Virginia, U.S.A.), modified with an excitation filter at 540 nm, an emission filter at 620 nm and a Xenon lamp.
This example illustrates the practice of this invention to identify a Proteus species in solution. Test solutions and cell control solutions were prepared and tested as described in Example 2 and 3 except that polymixin B was used at 0.01 mg/ml of methanol. The final cell concentration was about 5×10^7 cells/ml.

For gramicidin S, the “Corrected ΔOD (15 Minutes)” value (E. coli [1]) was greater than 2.0, the “Corrected ΔOD (15 Minutes)” value (S. aureus [2]) was 0.107 and the “Δ Fluorescence (30 Minutes)” value (E. coli [3]) was greater than 4000. The “Δ Fluorescence (30 Minutes)” value (K. pneumoniae) was 3084, the “ΔOD, 540 nm after 30 Minutes” value (S. aureus [4]) was 0.177 and the “ΔOD, 540 nm after 30 Minutes” value (E. coli [5]) was 1.123. For the same substance, the “ΔOD, 620 nm after 30 Minutes” value (S. aureus [6]) was 0.096, the “ΔOD, 620 nm after 30 Minutes” value (E. coli [7]) was 1.042 and the “inhibition of reduction of the RIND compound, in words” value [8] was “selectively inhibits the reduction of the RIND compound by viable gram-positive bacteria but not gram-negative bacteria”. The “differentiation between viable gram-positive and gram-negative bacteria, in words” value [9] was “can be used with RIND XXIX to differentiate between viable gram-positive and gram-negative bacteria”.
